Reference: US5767116A, “Bicyclic aromatic compounds as therapeutic agents” (Knoll Atkiengesellschaft, priority 1993, dated 1998)
Counter-ions that a name gives are not always drawn. Like-named read-outs stand apart in the source and are kept apart here.

Legend:
[1] = molecular target: T1, 5-HT1A receptors (Rattus norvegicus, UniProt P19327); experiment: biochemical; format: binding, rat (male Charles River CD); settings: for Ki: 25° C., 30 minutes
T1 sequence (P19327 1-422): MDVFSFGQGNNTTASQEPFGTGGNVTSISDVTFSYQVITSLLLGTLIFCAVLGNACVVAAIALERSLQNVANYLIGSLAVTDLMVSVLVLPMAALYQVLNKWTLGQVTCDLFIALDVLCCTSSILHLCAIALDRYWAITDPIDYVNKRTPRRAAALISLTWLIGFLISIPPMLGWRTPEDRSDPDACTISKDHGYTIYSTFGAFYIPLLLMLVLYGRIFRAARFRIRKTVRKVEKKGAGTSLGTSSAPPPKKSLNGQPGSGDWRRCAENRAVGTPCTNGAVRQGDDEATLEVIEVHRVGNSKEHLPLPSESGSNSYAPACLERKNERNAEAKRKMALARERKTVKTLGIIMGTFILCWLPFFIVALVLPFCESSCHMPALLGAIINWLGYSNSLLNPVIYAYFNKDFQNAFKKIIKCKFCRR
Protocol: The pellet was rehomogenised in the same buffer, incubated at 37° C. for 10 minutes and centrifuged at 30,000 g at 4° C. for 10 minutes. […] Aliquots (400 μl; equivalent to 2.5 mg wet weight of tissue/tube) of this suspension were added to tubes containing the ligand (50 μl; 2 nM) and distilled water (50 μl; total binding) or 5-HT (50 μl; 10 µM; non-specific binding) or test compound (50 μl; at a single concentration of 10^-6 M or at 10 concentrations ranging from 10^-11 -10^-3 M). The ligand was [^3 H]8-hydroxy-2-(dipropylamino)tetralin([^3 H]8-OH-DPAT) and the mixture was incubated at 25° C. for 30 minutes before the incubation was terminated by rapid filtration.
(§1) The filters were punched out into vials, scintillation fluid added and radioactivity determined by liquid scintillation counting. The percentage displacement of specific binding of the tritiated ligand was calculated for the single concentration (10^-6 M) of test compound. Displacement curves were then produced for those compounds which displaced ≥50% of specific binding of the tritiated ligand at 10^-6 M using a range of concentrations of the compound. […] The inhibition coefficient Ki was then calculated using the formula [formula] in which [ligand] is the concentration of the tritiated ligand used and KD is the equilibrium dissociation constant for the ligand.

[2] = tested on: α1-adrenoceptors; experiment: inhibition of tritiated ligand ([7-methoxy-^3 H]prazosin) binding to α1-adrenoceptors in vitro (whole cortical tissue); set-up: species or system rat (male Charles River CD); settings: rat whole cortical tissue; for % displacement at 10^-6 M, α1: 30 min, 1 µM; for Ki: 30° C., 30 minutes, > from highest concentration which displaced ≤50% of the ligand
Protocol: The supernatant was centrifuged at 30,000 g at 4° C. for 10 minutes. […] Aliquots (400 μl; equivalent to 5 mg wet weight of tissue/tube) of this suspension were added to tubes containing the ligand (50 μl; 0.1 nM) and distilled water (50 μl; total binding) or phentolamine (50 μl; 5 μM; non-specific binding) or test compound (50 μl; at a single concentration of 10^-6 M or at 10 concentrations ranging from 10^-11 -10^-3 M). The ligand was [7-methoxy-^3 H]prazosin and the mixture was incubated at 30° C. for 30 minutes before the incubation was terminated by rapid filtration.
as §1

[3] = molecular target: T2, α2-adrenoceptors (Rattus norvegicus, UniProt P22909); experiment: inhibition of tritiated ligand (tritiated idazoxan) binding to α2-adrenoceptors in vitro (frontal cortical tissue); set-up: species or system rat (male Charles River CD); settings: for Ki: 0° C., 75 minutes, > from highest concentration which displaced ≤50% of the ligand
T2 sequence (P22909 1-465): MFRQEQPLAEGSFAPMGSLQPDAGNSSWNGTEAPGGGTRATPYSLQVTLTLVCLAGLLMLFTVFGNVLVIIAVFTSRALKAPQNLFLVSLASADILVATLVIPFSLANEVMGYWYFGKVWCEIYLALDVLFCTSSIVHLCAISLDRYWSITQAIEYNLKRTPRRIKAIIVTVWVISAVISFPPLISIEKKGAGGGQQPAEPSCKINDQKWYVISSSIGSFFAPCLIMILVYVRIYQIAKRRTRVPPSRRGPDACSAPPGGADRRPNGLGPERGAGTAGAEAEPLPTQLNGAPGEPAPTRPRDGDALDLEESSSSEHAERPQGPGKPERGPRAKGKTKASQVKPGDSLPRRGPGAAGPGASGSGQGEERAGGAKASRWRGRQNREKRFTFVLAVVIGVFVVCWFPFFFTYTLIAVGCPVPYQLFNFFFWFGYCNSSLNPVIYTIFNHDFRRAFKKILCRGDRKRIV
Protocol: Frontal cortical tissue from the brains of male Charles River CD rats weighing between 150-250 g were homogenised in ice-cold 0.25M sucrose (1:30 w/v) and centrifuged at 1,000 g at 4° C. for 12 minutes. The supernatant was stored on ice and the pellet was rehomogenised in 0.25M sucrose (1:15 w/v) and centrifuged at 850 g at 4° C. for 12 minutes. Combined supernatants were diluted with 5 mM Tris-HCl (pH 7.5) containing 0.5M ethylenediamine tetraacetic acid (EDTA) readjusted to pH 7.5 (at 25° C.) with 1M sodium hydroxide to 1:80 w/v, and centrifuged at 30,000 g at 4° C. for 10 minutes. The resulting pellet was resuspended in 5 mM Tris-HCl (pH 7.5) containing 5.68 mM L-ascorbic acid and 5 mM EDTA readjusted to pH 7.5 (at 25° C.) with 1M sodium hydroxide, and centrifuged at 30,000 g for 10 minutes. The final pellet was resuspended in 50 mM Tris-HCl (pH 7.5) containing 5.68 mM L-ascorbic acid and 5 mM EDTA (equivalent to 12.5 mg wet weight of tissue/ml) and used immediately in the binding assay. Aliquots (400 μl; equivalent to 5 mg wet weight of tissue/tube) of this suspension were added to tubes containing the ligand (50 μl; 1 nM) and distilled water (50 μl; total binding) or phentolamine (50 μl; 5 μM; non-specificbinding) or test compound (50 μl; at a single concentration of 10^-6 M or at 10 concentrations ranging from 10^-11 -10^-3 M). The ligand was tritiated idazoxan ((1,4-[6,7(n)-^3 H]benzodioxan-2-yl)-2-imidazoline hydrochloride) and the mixture was incubated at 0° C. for 75 minutes before the incubation was terminated by rapid filtration.
as §1, with “The filters were washed with ice-cold Tris-HCl buffer and dried. The filters” for “The filters”

[4] = molecular target: D2 dopamine receptors (Rattus norvegicus, UniProt P61169); experiment: biochemical; format: binding, rat (male Charles River CD); settings: rat striatal tissue, tritiated (S)-sulpiride, 4° C., 40 minutes
[5] = 10^-6 M, rat hippocampal tissue, [^3 H]8-OH-DPAT, read-out: % displacement at 10^-6 M, 5-HT1A
[6] = 10^-6 M, rat frontal cortical tissue, tritiated idazoxan, read-out: % displacement at 10^-6 M, α2
[7] = read-out: % displacement at 10^-6 M, 5-HT1A, 10^-6 M, rat hippocampal tissue, [^3 H]8-OH-DPAT
[8] = read-out: % displacement at 10^-6 M, α2, 10^-6 M, rat frontal cortical tissue, tritiated idazoxan
[9] = rat hippocampal tissue, [^3 H]8-OH-DPAT
[10] = rat frontal cortical tissue, tritiated idazoxan

Chain of D2 dopamine receptors (P61169 whole entry): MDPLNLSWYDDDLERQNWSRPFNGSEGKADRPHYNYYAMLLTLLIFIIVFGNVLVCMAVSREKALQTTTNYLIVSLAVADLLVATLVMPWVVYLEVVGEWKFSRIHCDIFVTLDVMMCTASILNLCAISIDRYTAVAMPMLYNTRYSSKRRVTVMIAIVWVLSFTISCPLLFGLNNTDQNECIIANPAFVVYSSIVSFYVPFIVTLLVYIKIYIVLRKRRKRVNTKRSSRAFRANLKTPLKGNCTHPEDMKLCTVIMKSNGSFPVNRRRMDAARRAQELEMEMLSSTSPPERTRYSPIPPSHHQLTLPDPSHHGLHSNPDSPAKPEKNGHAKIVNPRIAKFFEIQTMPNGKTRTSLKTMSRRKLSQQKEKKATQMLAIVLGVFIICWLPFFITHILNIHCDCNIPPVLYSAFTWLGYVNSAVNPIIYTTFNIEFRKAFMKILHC

inhibition at 1 µM [1, 5] [%]	Ki [1, 9] [nM]	Ki [4] [nM]	Ki [2] [nM]	Ki [3, 10] [nM]	Compound	% displacement at 10^-6 M, α1 [2] [%]	inhibition at 1 µM [3, 6] [%]	inhibition at 1 µM [1, 7] [%]	inhibition at 1 µM [3, 8] [%]
					Cl.Cl.c1ccc(N2CCC(CNCC3COc4ccccc4O3)CC2)nc1 (single isomer, unassigned; (-)) [Example 19, (-)-N-(1,4-benzodioxan-2-ylmethyl)-1-[1-(pyrid-2-yl)piperid-4-yl]methylamine dihydrochloride]	98		98	96
	14	15.6	23.9	31	c1ccc2c(c1)OCC(CNCC1CCN(c3cnccn3)CC1)O2 (centres unmarked) [Example 1, N-(1,4-benzodioxan-2-ylmethyl)-1-[1-(pyrazin-2-yl)piperid-4-yl]methylamine1.4 hydrochloride]				
	7.7	19	78	394	COc1ccccc1N1CCC(CNCC2COc3ccccc3O2)CC1 (centres unmarked) [Example 2, N-(1,4-benzodioxan-2-ylmethyl)-1-[1-(2-methoxyphenyl)piperid-4-yl]methylamine dihydrochloride]				
	1.9	45.3	38	86	Clc1cccnc1N1CCC(CNCC2COc3ccccc3O2)CC1 (centres unmarked) [Example 3, N-(1,4-benzodioxan-2-ylmethyl)-1-[1-(3-chloropyrid-2-yl)piperid-4-yl]methylamine 1.4 hydrochloride]				
	3.8	35.8	13	30	c1ccc2c(c1)OCC(CNCC1CCN(c3ncnc4ccccc34)CC1)O2 (centres unmarked) [Example 4, N-(1,4-benzodioxan-2-ylmethyl)-1-[1-(quinazolin-4-yl)piperid-4-yl]methylamine dihydrochloride]				
96					COc1ccccc1N1CCC(CNC[C@H]2COc3ccccc3O2)CC1 [Example 7, (S)-(-)-N-(1,4-benzodioxan-2-ylmethyl)-1-[1-(2-methoxyphenyl)-piperid-4-yl]methylamine]	94	72		
					Cl.Cl.c1ccc(N2CCC(CNCC3COc4ccccc4O3)CC2)cc1 (centres unmarked) [Example 12, N-(1,4-benzodioxan-2-ylmethyl)-1-(1-phenylpiperid-4-yl)methylamine dihydrochloride]	89		97	66
					Cl.Cl.c1ccc2c(c1)OCC(CNCC1CCN(c3cccc4c3OCCO4)CC1)O2 (centres unmarked) [Example 13, N-(1,4-benzodioxan-2-ylmethyl)-1-[1-(1,4-benzodioxan-5-yl)piperid-4-yl]methylamine dihydrochloride]	93		100	66
87				> 500	COc1ccccc1N1CCC(CNC[C@@H]2COc3ccccc3O2)CC1 [Example 14, (R)-(+)-N-(1,4-benzodioxan-2-ylmethyl)-1-[1-(2-methoxyphenyl)piperid-4-yl]methylamine]	57			
					COc1ccccc1NCC1CCN(CC2COc3ccccc3O2)CC1.O=C(O)C(=O)O (centres unmarked) [Example 15, 1-[1-(1,4-benzodioxan-2-ylmethyl)piperid-4-yl]-N-(2-methoxyphenyl)methylamine mono-oxalate]	94		97	94
					COc1ccc(N2CCC(CNCC3COc4ccccc4O3)CC2)cc1.Cl.Cl (centres unmarked) [Example 16, N-(1,4-benzodioxan-2-ylmethyl)-1-[1-(4-methoxyphenyl)piperid-4-yl]methylamine dihydrochloride]	94		98	64
94			> 500	> 500	COc1ccccc1N1CCC(CNCC2COc3cccc(O)c3O2)CC1 (centres unmarked) [Example 28, N-(8-hydroxy-1,4-benzodioxan-2-ylmethyl) -1-[1-(2-methoxyphenyl)piperid-4-yl]methylamine]				

Compound	inhibition at 1 µM [1, 5] [%]	Ki [1, 9] [nM]	Ki [4] [nM]	Ki [2] [nM]	Ki [3, 10] [nM]	% displacement at 10^-6 M, α1 [2] [%]	inhibition at 1 µM [3, 6] [%]	inhibition at 1 µM [1, 7] [%]	inhibition at 1 µM [3, 8] [%]
c1ccc(N2CCC(CNCC3COc4ccccc4O3)CC2)nc1 (single isomer, unassigned; (+)) [Example 20, (+)-N-(1,4-benzodioxan-2-ylmethyl)-1-[1-pyrid-2-yl)piperid-4-yl]methylamine dihydrochloride]	82					94	91		
c1ccc(N2CCC(CNCC3COc4ccccc4O3)CC2)nc1 (centres unmarked) [Example 5, N-(1,4-benzodioxan-2-ylmethyl)-1-[1-(pyrid-2-yl)piperid-4-yl]methylamine dihydrochloride]		22.6	29	79	50				
COc1ccccc1N1CCC(CNCC2COc3cccc(OC)c3O2)CC1 (centres unmarked) [Example 6, N-(8-methoxy-1,4-benzodioxan-2-ylmethyl)-1-[1-(2-methoxyphenyl)piperid-4-yl]methylamine dihydrochloride]		252	8.5	3.7					92
COc1cccc(N2CCC(CNCC3COc4ccccc4O3)CC2)c1 (centres unmarked) [Example 18, N-(1,4-benzodioxan-2-ylmethyl)-1-[1-(3-methoxyphenyl)piperid-4-yl]methylamine hydrochloride]		7			242				
